# Data: EP3421457B1, “PYRIMIDINE FGFR4 INHIBITORS” (priority 2013, dated 2015)
# Structures can show the parent of a compound that is named as a salt.
# Molecular target: T1, FGFR4 (Homo sapiens, UniProt P22455)
# T1 construct: purchased Invitrogen
# Experiment: IC50 Profiling of Kinase Activity Inhibition (Kinase HotSpot assay)
# Assay type: biochemical
# Conditions: not given
# T1 sequence (P22455 22-802): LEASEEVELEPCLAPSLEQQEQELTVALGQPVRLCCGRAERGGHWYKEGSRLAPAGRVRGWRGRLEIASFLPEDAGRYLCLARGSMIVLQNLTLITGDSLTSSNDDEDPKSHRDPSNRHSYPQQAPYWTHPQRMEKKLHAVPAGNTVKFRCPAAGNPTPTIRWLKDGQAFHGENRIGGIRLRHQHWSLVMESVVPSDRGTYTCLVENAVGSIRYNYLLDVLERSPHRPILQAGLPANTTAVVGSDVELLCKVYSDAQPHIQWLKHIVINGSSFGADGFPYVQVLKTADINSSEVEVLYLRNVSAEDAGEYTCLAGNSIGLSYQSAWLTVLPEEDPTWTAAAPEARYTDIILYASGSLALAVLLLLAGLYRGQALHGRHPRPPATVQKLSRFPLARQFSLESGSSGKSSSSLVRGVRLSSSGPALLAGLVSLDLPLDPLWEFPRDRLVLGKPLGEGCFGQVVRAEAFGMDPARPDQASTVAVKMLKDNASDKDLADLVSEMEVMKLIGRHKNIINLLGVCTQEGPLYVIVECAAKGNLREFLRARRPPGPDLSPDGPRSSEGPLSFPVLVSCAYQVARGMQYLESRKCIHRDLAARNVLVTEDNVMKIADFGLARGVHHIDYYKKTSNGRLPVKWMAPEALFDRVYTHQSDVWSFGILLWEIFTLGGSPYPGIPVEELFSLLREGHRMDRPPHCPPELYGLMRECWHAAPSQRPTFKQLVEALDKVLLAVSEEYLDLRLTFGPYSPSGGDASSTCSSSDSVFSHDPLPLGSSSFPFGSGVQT
row,Structure (SMILES),IC50 [nM]
1,"C=CC(=O)Nc1cc(N2CCN(C(C)=O)CC2)ccc1Nc1cc(N(C)C(=O)Nc2c(Cl)c(OC)cc(OC)c2Cl)ncn1 [Compound 154, N-(5-(4-acetylpiperazin-1-yl)-2-((6-(3-(2,6-dichloro-3,5-dimethoxyphenyl)-1-methylureido)pyrimidin-4-yl)amino)phenyl)acrylamide]",< 1

# Same assay, conditions: Table 1
row,Structure (SMILES),IC50 [nM]
1,"C=CC(=O)Nc1cc(N2CCN(CCN)CC2)ccc1Nc1cc(N(C)C(=O)Nc2c(Cl)c(OC)cc(OC)c2Cl)ncn1 [Compound 161, N-(5-(4-(2-aminoethyl)piperazin-1-yl)-2-((6-(3-(2,6-dichloro-3,5-dimethoxyphenyl)-1-methylureido)pyrimidin-4-yl)amino)phenyl)acrylamide 2 TFA salt]",< 1
2,"C=CC(=O)Nc1ccccc1Nc1cc(N(Cc2ccccn2)C(=O)Nc2c(Cl)c(OC)cc(OC)c2Cl)ncn1 [Compound 131, N-(2-{6-[3-(2,6-Dichloro-3,5-dimethoxy-phenyl)-1-pyridin-2-ylmethyl-ureido]-pyrimidin-4-ylamino}-phenyl)-acrylamide]",< 1
3,C=CC(=O)Nc1cc(N2CCN(CC)CC2)ccc1Nc1cc(N(C)C(=O)Nc2c(F)c(OC)cc(OC)c2F)ncn1 [Compound 143],10
4,C=CC(=O)Nc1ccccc1Nc1cc(N(Cc2ccncc2)C(=O)Nc2c(Cl)c(OC)cc(OC)c2Cl)ncn1 [Compound 132],< 1
5,"C=CC(=O)Nc1cc(C2CCN(C)CC2)ccc1Nc1cc(N(C)C(=O)Nc2c(Cl)c(OC)cc(OC)c2Cl)ncn1 [Compound 112, N-(2-(6-(3-(2,6-dichloro-3,5-dimethoxyphenyl)-1-methylureido)pyrimidin-4-ylamino)-5-(1-methylpiperidin-4-yl)phenyl)acrylamide]",< 1
6,"C=CC(=O)Nc1cc(OCCO)ccc1Nc1cc(N(C)C(=O)Nc2c(Cl)c(OC)cc(OC)c2Cl)ncn1 [Compound 164, 2,2,2-trifluoroacetate]",< 1
7,"C=CC(=O)Nc1cc(C(=O)N2CCN(CC)CC2)ccc1Nc1cc(N(C)C(=O)Nc2c(Cl)c(OC)cc(OC)c2Cl)ncn1 [Compound 150, N-(2-((6-(3-(2,6-dichloro-3,5-dimethoxyphenyl)-1-methylureido)pyrimidin-4-yl)amino)-5-(4-ethylpiperazine-1-carbonyl)phenyl)acrylamide]",< 1
8,"C=CC(=O)Nc1cc(N2CCN(CC)CC2)ccc1Nc1cc(N(C)C(=O)Nc2cc(OC)cc(OC)c2Cl)ncn1 [Compound 141, N-(2-((6-(3-(2-chloro-3,5-dimethoxyphenyl)-1-methylureido)pyrimidin-4-yl)amino)-5-(4-ethylpiperazin-1-yl)phenyl)acrylamide]",2
9,"C=CC(=O)Nc1ccccc1Nc1cc(N(Cc2ccccc2)C(=O)Nc2c(Cl)c(OC)cc(OC)c2Cl)ncn1 [Compound 130, N-(2-{6-[1-Benzyl-3-(2,6-dichloro-3,5-dimethoxy-phenyl)-ureido]-pyrimidin-4-ylamino}-phenyl)-acrylamide]",2
10,"C=CC(=O)Nc1ccccc1Nc1cc(N(CCCN2CCN(C)CC2)C(=O)Nc2c(Cl)c(OC)cc(OC)c2Cl)ncn1 [Compound 121, N-[2-(6-{3-(2,6-Dichloro-3,5-dimethoxy-phenyl)-1-[3-(4-methyl-piperazin-1-yl)-propyl]-ureido}-pyrimidin-4-ylamino)-phenyl]-acrylamide]",< 1
11,"C=CC(=O)Nc1ccccc1Nc1cc(N(CCOC)C(=O)Nc2c(Cl)c(OC)cc(OC)c2Cl)ncn1 [Compound 116, N-(2-{6-[3-(2,6-Dichloro-3,5-dimethoxy-phenyl)-1-(2-methoxy-ethyl)-ureido]-pyrimidin-4-ylamino}-phenyl)-acrylamide]",4
12,"C=CC(=O)Nc1cc(N2CCN(CC)CC2)ccc1Nc1cc(N(C)C(=O)Nc2c(F)c(OC)cc(OC)c2Cl)ncn1 [Compound 144, N-(2-((6-(3-(2-chloro-6-fluoro-3,5-dimethoxyphenyl)-1-methylureido)pyrimidin-4-yl)amino)-5-(4-ethylpiperazin-1-yl)phenyl)acrylamide]",< 1
13,"C=CC(=O)Nc1cc(N2C[C@@H](C)N[C@@H](C)C2)ccc1Nc1cc(N(C)C(=O)Nc2c(Cl)c(OC)cc(OC)c2Cl)ncn1 [Compound 124, N-[2-{6-[3-(2,6-Dichloro-3,5-dimethoxy-phenyl)-1-methyl-ureido]-pyrimidin-4-ylamino}-5-(3,5-dimethyl-piperazin-1-yl)-phenyl]-acrylamide]",< 1
14,"C#CC(=O)Nc1ccccc1Nc1cc(N(C)C(=O)Nc2c(Cl)c(OC)cc(OC)c2Cl)ncn1 [Compound 114, N-(2-(6-(3-(2,6-dichloro-3,5-dimethoxyphenyl)-1-methylureido)pyrimidin-4-ylamino)phenyl)propiolamide]",< 1
15,"C=CC(=O)Nc1cc(N2CCN(S(C)(=O)=O)CC2)ccc1Nc1cc(N(C)C(=O)Nc2c(Cl)c(OC)cc(OC)c2Cl)ncn1 [Compound 125, N-[2-{6-[3-(2,6-Dichloro-3,5-dimethoxy-phenyl)-1-methyl-ureido]-pyrimidin-4-ylamino}-5-(4-methanesulfonyl-piperazin-1-yl)-phenyl]-acrylamide]",< 1
16,"C=CC(=O)Nc1cc(N2CCN(CCO)CC2)ccc1Nc1cc(N(C)C(=O)Nc2c(Cl)c(OC)cc(OC)c2Cl)ncn1 [Compound 168, N-(2-((6-(3-(2,6-dichloro-3,5-dimethoxyphenyl)-1-methylureido)pyrimidin-4-yl)amino)-5-(4-(2-hydroxyethyl)piperazin-1-yl)phenyl)acrylamide TFA salt]",< 1
17,"C=CC(=O)Nc1cc(COC)ccc1Nc1cc(N(C)C(=O)Nc2c(Cl)c(OC)cc(OC)c2Cl)ncn1 [Compound 147, N-(2-((6-(3-(2,6-dichloro-3,5-dimethoxyphenyl)-l-methylureido)pyrimidin-4-yl)amino)-5-(methoxymethyl)phenyl)acrylamide]",< 1
18,C=CC(=O)N(C)c1cc(N2CCN(CC)CC2)ccc1Nc1cc(N(C)C(=O)Nc2c(Cl)c(OC)cc(OC)c2Cl)ncn1 [Compound 152],14
19,"C=CC(=O)Nc1cc(C(=O)N(C)C)ccc1Nc1cc(N(C)C(=O)Nc2c(Cl)c(OC)cc(OC)c2Cl)ncn1 [Compound 149, 3-acrylamido-4-((6-(3-(2,6-dichloro-3,5-dimethoxyphenyl)-1-methylureido)pyrimidin-4-yl)amino)-N,N-dimethylbenzamide]",< 1
20,"C=CC(=O)Nc1cc(C(C)OC)ccc1Nc1cc(N(C)C(=O)Nc2c(Cl)c(OC)cc(OC)c2Cl)ncn1 (stereo not shown) [Compound 155, N-(2-((6-(3-(2,6-dichloro-3,5-dimethoxyphenyl)-1-methylureido)pyrimidin-4-yl)amino)-5-(1-methoxyethyl)phenyl)acrylamide]",< 1
21,"C=CC(=O)Nc1cc(N2CCN(CC)CC2)ccc1Nc1cc(N(C)C(=O)Nc2c(Cl)cccc2Cl)ncn1 [Compound 140, N-(2-((6-(3-(2,6-dichlorophenyl)-1-methylureido)pyrimidin-4-yl)amino)-5-(4-ethylpiperazin-1-yl)phenyl)acrylamide]",< 1

# Further lines, results first:
row,IC50 [nM],Structure (SMILES)
1,13,"C=CC(=O)Nc1c(F)cccc1Nc1cc(N(C)C(=O)Nc2c(Cl)c(OC)cc(OC)c2Cl)ncn1 [Compound 185, N-(2-((6-(3-(2,6-dichloro-3,5-dimethoxyphenyl)-1-methylureido)pyrimidin-4-yl)amino)-6-fluorophenyl)acrylamide]"
2,< 1,"C=CC(=O)Nc1cccc(C)c1Nc1cc(N(C)C(=O)Nc2c(Cl)c(OC)cc(OC)c2Cl)ncn1 [Compound 165, N-(2-((6-(3-(2,6-dichloro-3,5-dimethoxyphenyl)-1-methylureido)pyrimidin-4-yl)amino)-3-methylphenyl)acrylamide]"
3,3,"COc1cc(OC)c(Cl)c(NC(=O)N(C)c2cc(Nc3ccccc3NC(=O)/C=C\Cl)ncn2)c1Cl [Compound 171, (Z)-3-chloro-N-(2-((6-(3-(2,6-dichloro-3,5-dimethoxyphenyl)-1-methylureido)pyrimidin-4-yl)amino)phenyl)acrylamide]"
4,345,C=CC(=O)Nc1c(Nc2cc(N(C)C(=O)Nc3c(Cl)c(OC)cc(OC)c3Cl)ncn2)cccc1OC [Compound 186]
5,< 1,"C=CC(=O)Nc1cc(C(C)O)ccc1Nc1cc(N(C)C(=O)Nc2c(Cl)c(OC)cc(OC)c2Cl)ncn1 (stereo not shown) [Compound 156, N-(2-((6-(3-(2,6-dichloro-3,5-dimethoxyphenyl)-1-methylureido)pyrimidin-4-yl)amino)-5-(1-hydroxyethyl)phenyl) acrylamide]"
6,< 1,"C=CC(=O)Nc1cccc(Cl)c1Nc1cc(N(C)C(=O)Nc2c(Cl)c(OC)cc(OC)c2Cl)ncn1 [Compound 167, N-(3-chloro-2-((6-(3-(2,6-dichloro-3,5-dimethoxyphenyl)-1-methylureido)pyrimidin-4-yl)amino)phenyl)acrylamide]"
7,< 1,"C=CC(=O)Nc1cc(N(C)CCO)ccc1Nc1cc(N(C)C(=O)Nc2c(Cl)c(OC)cc(OC)c2Cl)ncn1 [Compound 158, N-(2-((6-(3-(2,6-dichloro-3,5-dimethoxyphenyl)-1-methylureido)pyrimidin-4-yl)amino)-5-((2-hydroxyethyl)(methyl)amino)phenyl)acrylamide]"
8,< 1,C=CC(=O)Nc1cc(N2CCN(C)CC2)ccc1Nc1cc(N(C)C(=O)Nc2c(Cl)c(OC)cc(OC)c2Cl)ncn1 [Compound 159]
9,8,"COc1cc(OC)c(Cl)c(NC(=O)N(C)c2cc(Nc3ccccc3NC(=O)/C=C/Cl)ncn2)c1Cl [Compound 170, (E)-3-chloro-N-(2-((6-(3-(2,6-dichloro-3,5-dimethoxyphenyl)-1-methylureido)pyrimidin-4-yl)amino)phenyl)acrylamide]"
10,< 1,"CCN1CCN(c2ccc(Nc3cc(N(C)C(=O)Nc4c(Cl)c(OC)cc(OC)c4Cl)ncn3)c(NC(=O)/C=C\Cl)c2)CC1 [Compound 181, (Z)-3-chloro-N-(2-((6-(3-(2,6-dichloro-3,5-dimethoxyphenyl)-1-methylureido)pyrimidin-4-yl)amino)-5-(4-ethylpiperazin-1-yl)phenyl)acrylamide]"
11,180,C=CC(=O)Nc1ccccc1Nc1cc(N(CCNC(C)C)C(=O)Nc2c(Cl)c(OC)cc(OC)c2Cl)ncn1 [Compound 183]
12,< 1,"C=CC(=O)Nc1cccc(OC)c1Nc1cc(N(C)C(=O)Nc2c(Cl)c(OC)cc(OC)c2Cl)ncn1 [Compound 166, N-(2-((6-(3-(2,6-dichloro-3,5-dimethoxyphenyl)-1-methylureido)pyrimidin-4-yl)amino)-3-methoxyphenyl)acrylamide]"
